Series [1] has as its system CNS receptors and ion channels (44 off-target sites). Description: PDSP broad screen of binding at off-target sites. As to conditions: binding screen at 10 μM / Ki follow-up.
Series [2] concerns CACO-2 cell monolayer / P-glycoprotein. Put plainly: Bidirectional permeability in CACO-2 cell monolayer. As to conditions: CACO-2 monolayer; for P-glycoprotein substrate: bidirectional permeability. Background: Passage across Caco-2 layers is used to estimate intestinal permeability.
The subject of series [3] is chronic constriction injury (CCI) of the sciatic nerve, mechano-allodynia. Description: CCI model of neuropathic pain in mice, oral dosing, paw withdrawal threshold. The class given is in vivo, mouse. As to conditions: for in vivo duration of action: po, CCI model in mice.
The next series concerns the target T1, mA3AR (Mus musculus, UniProt Q61618).
T1 sequence (Q61618 1-319): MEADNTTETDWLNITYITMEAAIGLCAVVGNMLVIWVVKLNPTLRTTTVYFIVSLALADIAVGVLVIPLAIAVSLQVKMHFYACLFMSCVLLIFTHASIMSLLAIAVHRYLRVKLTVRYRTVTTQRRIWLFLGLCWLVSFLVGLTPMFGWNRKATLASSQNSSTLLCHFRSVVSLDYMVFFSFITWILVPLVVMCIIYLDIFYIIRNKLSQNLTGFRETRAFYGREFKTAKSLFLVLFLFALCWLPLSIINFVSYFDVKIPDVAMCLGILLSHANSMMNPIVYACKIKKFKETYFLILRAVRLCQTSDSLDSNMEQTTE
It is filed as cell-based.

For another series, the target named is T2, hA3AR (Homo sapiens, UniProt P0DMS8).
T2 sequence (P0DMS8 1-318): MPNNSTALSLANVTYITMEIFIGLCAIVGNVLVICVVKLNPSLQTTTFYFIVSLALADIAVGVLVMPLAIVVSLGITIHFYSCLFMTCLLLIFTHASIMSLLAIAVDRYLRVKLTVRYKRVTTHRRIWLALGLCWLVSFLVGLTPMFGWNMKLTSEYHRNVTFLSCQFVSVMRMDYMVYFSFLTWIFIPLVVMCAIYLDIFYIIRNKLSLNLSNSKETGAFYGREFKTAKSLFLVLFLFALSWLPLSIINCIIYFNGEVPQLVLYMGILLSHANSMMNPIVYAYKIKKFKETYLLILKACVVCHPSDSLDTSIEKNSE
Description: Radioligand binding at hA3AR, CHO cell membranes, [125I]I-AB-MECA. As to conditions: read-out: hA3AR Ki, n = 3–4.

Series [4] can be described thus: Stability in rat liver microsomes. For orientation: Liver microsomes are a subcellular fraction often used to study metabolism.
Series [5] is described as follows: Stability in human liver microsomes.
Series [6] is described as follows: Stability in mouse liver microsomes.
Series [7] is described as follows: Plasma protein binding.
The nature of series [8]: Plasma protein binding. This is another data set of the same source.
Series [9] in a line: Plasma protein binding. This is another data set of the same source.
Series [10] can be described thus: Chemical stability in simulated gastric fluid. As to conditions: pH 1.6, 37 °C.
Series [11] is described as follows: Chemical stability in simulated intestinal fluid. The settings on record: pH 6.5, 37 °C.

“Also recorded” adds a separate entry of the source. Some results are limits rather than exact numbers.

In the case of `CNC(=O)[C@@]12C[C@@H]1[C@@H](n1cnc3c(NC)nc(C#Cc4ccc(F)c(F)c4)nc31)[C@H](O)[C@@H]2O` [Compound 13, reference compound], the “off-target interactions in PDSP screen” value in [1] is reported as “inhibited binding by >30% at only a few sites”.

As to `CNC(=O)[C@@]12C[C@@H]1[C@@H](n1cnc3c(NC)nc(C#Cc4cnccn4)nc31)[C@H](O)[C@@H]2O` [Compound 23, (1S,2R,3S,4R,5S)-2,3-Dihydroxy-N-methyl-4-(6-(methylamino)-2-(pyrazin-2-ylethynyl)-9H-purin-9-yl)bicyclo[3.1.0]hexane-1-carboxamide], in series [1], the “off-target interactions in PDSP screen” value is “inhibited binding by >30% at only a few sites”. In addition, in [2], the P-glycoprotein substrate entry is reported as “not to be substrates for P-glycoprotein”.

On to `CNC(=O)[C@@]12C[C@@H]1[C@@H](n1cnc3c(NC)nc(C#Cc4cnn(C)c4)nc31)[C@H](O)[C@@H]2O` [Compound 26, (1S,2R,3S,4R,5S)-2,3-Dihydroxy-N-methyl-4-(2-((1-methyl-1H-pyrazol-4-yl)ethynyl)-6-(methylamino)-9H-purin-9-yl)bicyclo[3.1.0]hexane-1-carboxamide], for which the “off-target interactions in PDSP screen” value in series [1] is recorded as “relatively free of off-target receptor effects”.

Take `CNC(=O)[C@@]12C[C@@H]1[C@@H](n1cnc3c(NC)nc(C#Cc4ccco4)nc31)[C@H](O)[C@@H]2O` [Compound 27, (1S,2R,3S,4R,5S)-4-(2-(Furan-2-ylethynyl)-6-(methylamino)-9H-purin-9-yl)-2,3-dihydroxy-N-methylbicyclo[3.1.0]hexane-1-carboxamide]: in series [3], the “in vivo duration of action” value is given as about 3 h. Also, the “off-target interactions in PDSP screen” value in series [1] is “relatively free of off-target receptor effects; also recorded: completely lacks off-target interactions at 10 μM”. In [2], the “apical to basal permeability” value is “moderate” and the P-glycoprotein substrate result is “not to be substrates for P-glycoprotein”.

Take `CNC(=O)[C@@]12C[C@@H]1[C@@H](n1cnc3c(NC)nc(C#Cc4cccs4)nc31)[C@H](O)[C@@H]2O` [Compound 32, (1S,2R,3S,4R,5S)-2,3-Dihydroxy-N-methyl-4-(6-(methylamino)-2-(thiophen-2-ylethynyl)-9H-purin-9-yl)bicyclo[3.1.0]hexane-1-carboxamide]: at mA3AR, half-maximal inhibition (IC50) required 60.1 nM. In addition, the “off-target interactions in PDSP screen” value in series [1] is reported as “inhibited binding by >30% at only a few sites”.

As for `CNC(=O)[C@@]12C[C@@H]1[C@@H](n1cnc3c(NC)nc(C#Cc4ccc(Cl)s4)nc31)[C@H](O)[C@@H]2O` [Compound 33, (1S,2R,3S,4R,5S)-4-(2-((5-Chlorothiophen-2-yl)ethynyl)-6-(methylamino)-9H-purin-9-yl)-2,3-dihydroxy-N-methylbicyclo[3.1.0]hexane-1-carboxamide], the “reversal of neuropathic pain at intermediate dose” value in series [3] ([…] po, Figure 1 dose–response) is recorded as “approximately 80%”. Also, the “in vivo duration of action” value in series [3] was over 3 h. Also, the “off-target interactions in PDSP screen” value in [1] was “largely free of off-target receptor effects, except at TSPO and σ1 and σ2 receptors”. Moreover, in series [2], the “apical to basal permeability” value was “moderate” and the P-glycoprotein substrate result is listed as “not to be substrates for P-glycoprotein”.

With `CNC(=O)[C@@]12C[C@@H]1[C@@H](n1cnc3c(NC)nc(C#C[c-]4cccc4)nc31)[C@H](O)[C@@H]2O.[Fe+2].c1cc[cH-]c1` [Compound 36, (1S,2R,3S,4R,5S)-4-(2-((Ferrocen-yl)ethynyl)-6-(methylamino)-9H-purin-9-yl)-2,3-dihydroxy-N-methylbicyclo[3.1.0]hexane-1-carboxamide], the inhibition constant (Ki) – broadly, the equilibrium dissociation constant of an inhibitor or competing ligand from its target – at hA3AR was 2.7 nM. The “max effect Emax (% ± SEM), % of complete reversal at peak protection” value in series [3] (3 μmol/kg po on day 7 after CCI, mice, ipsilateral hind paw) is 94.3 ± 5.7%. Moreover, in series [3], the “in vivo duration of action” value is over 3 h. Besides, at mA3AR (cyclic AMP assay, HEK293-mA3AR), the “agonist efficacy at the mA3AR” value is recorded as “full agonists”. In series [4], the “stability in liver microsomes t1/2, rat” value was 6.64 min. Besides, the “stability in liver microsomes t1/2, human” value in [5] was found to be 3.66 min. Also, the “stability in liver microsomes t1/2, mouse” value in series [6] came out at 1.98 min. In the series “Plasma protein binding [7]”, the “% unbound in plasma, rat” value was found to be 6.32%. Moreover, the “% unbound in plasma, human” value in “Plasma protein binding [8]” amounted to 7.00%. Also, the “% unbound in plasma, mouse” value in the series “Plasma protein binding [9]” was 4.85%. The “stability in simulated fluids, gastric, t1/2” value in [10] was 46.5 min. In addition, the “stability in simulated fluids, intestinal, t1/2” value in [11] is 174 min.

The values above are taken from publication PMC4266358 (Journal of Medicinal Chemistry, 2014).
